The record followed here is article PMC5770468, “Cardiac glycoside/aglycones inhibit HIV-1 gene expression by a mechanism requiring MEK1/2-ERK1/2 signaling” (Scientific Reports, 2018).

The test system of test [1] is HIV-1 (Gag) gene expression. Kind of test: HIV-1 (Gag) gene expression in HeLa rtTA-HIV-ΔMls cells, p24CA ELISA dose response. It counts as cell-based, HIV-1 (LAI). Conditions: for IC50: read-out: IC50 (nM) HeLa rtTA-HIV-ΔMls. The protocol: Drug/compounds were tested for effects on HIV-1 gene expression using inducible Tet-ON HIV-1 cell lines [HeLa rtTA-HIV-ΔMls or rtTA-HIV(Gag-GFP)] containing a HIV-1 (LAI) provirus activatable by Dox or tetracycline transactivator (tTA)[69]. The rtTA-HIV-ΔMls provirus was modified and used as previously reported[9]–[11],[70]. The rtTA-HIV(Gag-GFP) provirus was generated by deletion of the PR and RT coding regions within pol and insertion of GFP to the 3′ of gag, creating GFP fused to the C-terminal of Gag. After 4 h of drug/compound treatment, HIV-1 gene expression was activated with Dox (2 μg/mL) or tTA (described below). Equal concentrations of DMSO were present in each experiment. After ~20 h, cells and media were harvested to monitor the effects of drug/compound treatments as described below. HIV-1 gene expression was quantified via p24^CA ELISA or monitoring Gag-GFP fluorescence in cells as described below. In parallel, cell viability of treatments were assessed by XTT assay (Sigma-Aldrich, #TOX2).
Drug/compounds were purchased from Sigma (Digoxin, #D6003; Digitoxin, #D5878; Digoxigenin, #D9026; Digitoxigenin, #D9404; Ouabain, #O3125; Bufalin, #S961175; Cinobufagin, #C1272; and Anisomycin, #A9789) and derivatives of convallatoxin were synthesized from C. Lingwood’s lab of the Hospital for Sick Children (convallatoxin, peruvoside, RIDK-34, -36, -20, -21, -27, and -28). […] Recombinant human EGF was from Invitrogen (#PHG0314). Chemical structures were drawn in ChemSketch (ACD/Labs).
To monitor HIV-1 gene expression or replication, Gag release into cell culture supernatants were assayed by ELISA using a p24^CA antigen capture assay kit (AIDS & Cancer Virus Program, NCI-Frederick, Frederick, MD USA). Media harvested from HIV clinical isolates were diluted ~10 fold (or as necessary) prior to performing this assay. For analysis of HIV-1 and SR protein expression (and phosphorylation states with calf intestinal alkaline phosphatase treatments), cells were lysed and analyzed by western blot as previously outlined. Phosphatase inhibitors (e.g. 10 mM sodium fluoride, 2 mM sodium orthovanadate) were added to solutions requiring phospho protein analyses. An anti-chicken NKA antibody (α6F, #a6F–c, Developmental Studies Hybridoma Bank, The University of Iowa, contributed by Douglas M. Fambrough, The Johns Hopkins University) was used as specified to detect NKA α1- and β1-subunits across species. […] Activation of MAPKs was determined by western blot quantitation and calculation of phospho/total protein levels. […] Images were exported as TIF files for assembly, rotation, and equal brightness/contrast adjustments in ImageJ or Microsoft Powerpoint. Some lanes were cropped and rearranged from the same blot/gel as indicated. In representative gel/blot sets, samples were electrophoresed from the same experiment as controls, resolved simultaneously on identically cast gel(s), transferred to same PVDF (by either wet electrophoretic or by Bio-Rad Trans-Blot® Turbo Transfer System), and detected at same time. Marked locations of molecular weight (MW) standards are shown on the left as a reference. […] SUnSET analysis of total cellular protein synthesis. HeLa rtTA-HIV-ΔMls cells were cultured in the presence/absence of compound and pathway inhibitor (if any) and Dox induced for ~24 h as already described, then treated with puromycin (10 μg/mL, Sigma-Aldrich, #P8833) for 30 min to label nascent proteins prior to harvest. As control, 10 µM of cycloheximide (Sigma-Aldrich, #C4849) was added to some cells prior to puromycin treatment. Cells were subsequently washed, whole cell lysates prepared, and proteins quantified by western blot using an anti-puromycin antibody (EMD Millipore, #anti-12D10) as described above. Transfection of plasmid DNA into cells.
A general note: In an ELISA, binding on a coated surface is turned into a signal by an enzyme label.

The subject of test [2] is HIV-1 Gag-GFP expression. Kind of test: Recovery of HIV-1 Gag-GFP expression by pathway inhibitors in the presence of CSs, HeLa rtTA-HIV(Gag-GFP) cells. It counts as cell-based. Conditions: 12 μM U0126; 5.5 μM Selumetinib; 10 μM LY294002; 5 µM KB-R7943; CSs at ~IC80. The protocol:
Figure 5 Effect of modulating NKA expression, [Ca^2+]i, and PI3K-AKT on HIV-1 gene expression. Depletion of the NKA perturbs HIV-1 RNA processing (n ≥ 3, mean, s.e.m.). HeLa rtTA-HIV(Gag-GFP) cells were transduced with two shRNAs (E6/E10) to knockdown expression of the NKA α1 subunit and their effect on HIV-1 gene expression analyzed. After positive selection of cells with puromycin for 24–48 h, HIV-1 expression was Dox induced for 20 h, and cells harvested for analyses. Total mRNA (and protein) was isolated from cells, reverse transcribed, and analyzed by qRT-PCR and data normalized to β-actin (a,c). Results are shown relative to Stuffer (+). (a) Expression levels of NKA α1 mRNAs assayed by qRT-PCR. (b) HIV-1 Gag expression assayed by p24^CA ELISA of cell lysates (40 μg). (c) Accumulation of HIV-1 US (black), SS (white), and MS (gray) mRNAs quantified by qRT-PCR. (d–g) CSs suppress HIV-1 gene expression independent of intracellular Ca^2+ flux/signaling and PI3K-AKT activation. HeLa rtTA-HIV(Gag-GFP) cells were pre-treated with either a chelator of [Ca^2+]i (5 µM BAPTA-AM, [Ca2+]ii), inhibitors of NCX Ca^2+-entry (5 µM KB-R7943, NCXi) or PI3K (10 μM LY294002, PI3Ki), or untreated (DMSO, no pathway inhibitor) for ~2 h prior to treatment with ~IC80s of CSs or DMSO for 4 h, and Dox induced for ~20 h. The pathway used by a CS to inhibit HIV-1 expression was determined by monitoring for recovery of Gag-GFP expression by measuring GFP fluorescence in cell lysates (and initially by plate scans of live/fixed cells, Supplementary Fig. S7a and S8c). (d) Levels of [Ca^2+]i measured by Fura Red AM™ (n ≥ 4, mean, s.e.m.). (e–f) Quantification of Gag-GFP expression by reducing SDS-PAGE in lysates (35 μg) of cells which were pre-treated with/without KB-R7943 (n ≥ 3–4 mean, s.e.m.). […] (g) Graph quantitating Gag expression by p24^CA ELISA in lysates of cells (35 μg) that were pre-treated with/without LY294002 (n ≥ 3, mean, s.e.m.). Statistical comparisons in (a–g) were performed as illustrated (black/gray dashed lines) or described in Methods.
Figure 6 CSs control HIV-1 gene expression through intracellular signaling. HeLa rtTA-HIV(Gag-GFP) cells were pre-treated with/without pathway inhibitor overnight (~15 h) and treated with ~IC80s of CSs. […] Graphs quantifying the activation level (phospho/total protein) of each MAP/MAPK by western blot. […] The signaling pathway(s) used by a CS to inhibit HIV-1 expression was determined by detecting Gag-GFP fluorescence in cell lysates (~35 μg) by reducing SDS-PAGE after pre-treatment of cells with a MEK1/2 (12 μM U0126, white), p38α/β/β2 (15 μM SB203580/p38i, gray), or JNK1/2/3 (1.25 μM SP600125/JNKi, hatched) inhibitor (n ≥ 5–7, 4–8, and 3–7, resp., mean, s.e.m.). […]

Test [3] concerns HeLa rtTA-HIV-ΔMls cells. Kind of test: In vitro therapeutic index (CC20/IC50) in HeLa rtTA-HIV-ΔMls cells. The format is cell-based, human. From the text:
Without median toxic dose (TD50) and half-maximal effective concentration (EC50) data available to calculate TIs (in vivo) from HIV patients treated with CSs, we determined the following TIs for each cell type treated with a CS (summarized in Supplementary Table S1): in vitro TIs from HeLa rtTA-HIV-ΔMls cells using CC20/IC50 (instead of CC50/IC50), in vitro TIs from 24ST1NLESG cells using CC50/IC50, and ex vivo TIs from HIV-infected PBMCs using CC50/IC50 (at day 14 of culture approximated from available cell viability trends for CC50s of Supplementary Fig. S13 and inferred near maximal IC50s).
Supplementary Table S1. Comparison of the in vitro (IVTI) and ex vivo therapeutic indices (EVTIs) of CSs and their impact on the expression of essential HIV-1 proteins.
Notes: data for CC20, CC50, and IC50s for each drug/compound were estimated from dose response curves in Figures 1-2, Supplementary Table S1, Supplementary Figures S2, S5, and S13, and Wong et al.
">" means the estimate has not been accurately determined but is greater than the highest concentration […]
"( )" indicates preliminary data that was not shown. aCC20 instead of CC50 was estimated from dose response curves and used for calculation of IVTIs. bCells were treated at ~IC90of a CS.
(1 picture or pasted object on this page, not shown here)

Where [4] appears, read: Human immunodeficiency virus 1, HeLa.
The mark [5] stands for this setting: Human immunodeficiency virus 1, HeLa, read-out: IC90, HIV-1 (Gag) gene expression.

Read-outs that look alike come from different tables or passages of the source.

In the case of `CC1OC(OC2CC(O)C3(CO)C4C(O)CC5(C)C(C(=CC(=O)O)CO)CCC5(O)C4CCC3(O)C2)C(O)C(O)C1O` (stereo not drawn) [RIDK-21], the “anti-HIV-1 activity” value in test [1] (HeLa rtTA-HIV-ΔMls cells) is listed as “reduced/no anti-HIV-1 activity”. In addition, the IC50 (as a rule, the concentration that gives 50% inhibition) in test [1] (HIV-1 Gag expression, p24CA ELISA, 4 h drug then Dox ~20 h) is greater than 100 nM.

Consider `CO[C@H]1[C@H](O)[C@H](O[C@H]2CC[C@@]3(C=O)[C@H](CC[C@@H]4[C@@H]3CC[C@]3(C)[C@@H](C5=CC(=O)OC5)CC[C@]43O)C2)O[C@@H](C)[C@@H]1O` [Peruvoside], for which the “reduced potency relative to convallatoxin” value in test [1] (HeLa rtTA-HIV-ΔMls cells) is listed as 10 fold. Moreover, the half-inhibitory concentration (IC50) in test [1] (setting [4]) was 80 nM. For the same molecule, in test [1] (setting [5]), the IC90 is 250 nM.

Consider `O=c1cc(N2CCOCC2)oc2c(-c3ccccc3)cccc12` [LY294002], for which the “reversal of CS inhibition of HIV-1 Gag-GFP expression by pathway inhibitor pre-treatment” value (“reversal … by pathway inhibitor pre-treatment” for short) in test [2] is recorded as “did not reverse”.

In the case of `C[C@@H]1O[C@@H](O[C@H]2CC[C@]3(C=O)[C@H]4CC[C@]5(C)[C@@H](C6=CC(=O)OC6)CC[C@]5(O)[C@@H]4CC[C@]3(O)C2)[C@H](O)[C@H](O)[C@H]1O` [Convallatoxin], in test [3], the “better in vitro TI than digoxin” value is 6.8 fold. Moreover, the “better anti-HIV-1 activity than digoxin” value in test [1] amounted to 3.8 fold. In addition, the concentration for half-maximal inhibition (IC50) in test [1] (Human immunodeficiency virus 1, HeLa, HIV-1 Gag expression, p24CA ELISA, 4 h drug then Dox ~20 h) came to 12 nM. Besides, the IC90 in test [1] (Human immunodeficiency virus 1, HeLa rtTA-HIV-ΔMls cells, read-out: IC90, HIV-1 (Gag) gene expression) is 24 nM.

In the case of `Cn1cnc2c(F)c(Nc3ccc(Br)cc3Cl)c(C(=O)NOCCO)cc21` [Selumetinib], the “reversal … by pathway inhibitor pre-treatment” value in test [2] is recorded as “partially rescuing”.

With `CC(=O)O[C@H]1[C@H]2O[C@]23[C@@H]2CC[C@@H]4C[C@@H](O)CC[C@]4(C)[C@H]2CC[C@]3(C)[C@H]1c1ccc(=O)oc1` [Cinobufagin], the “better in vitro TI than digoxin” value in test [3] is on record as 2.3 fold. The IC50 in test [1] (setting [4]) amounted to 24 nM. For the same molecule, the IC90 in test [1] (setting [5]) was 40 nM; in test [1] (Human immunodeficiency virus 1, HeLa, read-out: ~IC90 (approximate concentration used in experiments)), roughly 40 nM. In test [1] (Human immunodeficiency virus 1, HeLa, read-out: ~IC80 (approximate concentration used in experiments)), the IC80 was roughly 40 nM. In addition, the “better anti-HIV-1 activity than digoxin” value in test [1] (cell based assays (HeLa rtTA-HIV-ΔMls)) stood at 1.9 fold.

For `N#CC(=C(/N)Sc1ccccc1N)/C(C#N)=C(/N)Sc1ccccc1N` [U0126], the “reversal … by pathway inhibitor pre-treatment” value in test [2] is given as “partially restored”.
